{"source": "patent EP4342467A1", "about": "“KU INHIBITORS FOR USE IN TUMOR THERAPY” (Masarykova Univerzita, priority 2022, dated 2024)", "key": {"SKOV3": {"test_system": "SKOV3", "assay": "growth of SKOV3 cells by ATPlite", "assay_type": "cell-based", "details": "7 days", "method": "(§1) 2,000 SKOV3 and A2780 cells were seeded in 100 µl of McCoy's 5a or RPMI 1640 media, respectively, for one day and then incubated with iKU-1 for 7 days. Number of viable cells was measured by ATPlite kit (Perkin Elmer) and normalized to the treatment with 0.5% DMSO."}, "HCT116 cells [1]": {"test_system": "HCT116 cells", "assay": "Q-FISH scoring of chromosome arms with no telomeric signal", "assay_type": "cell-based, human", "details": "HCT116, one or two days, 2 or 5 µM", "method": "Presence of extrachromosomal circular telomeric DNA indicates rapid telomere shortening via excision of telomeric circles. To validate this prediction, we scored chromosome arms with no telomeric signal on metaphase chromosomes from iKU-1 treated cells by quantitative fluorescence in situ hybridization (Q-FISH). HCT116 cells were incubated for one or two days in McCoy's 5a medium with 10% Fetal Bovine Serum, 2 mM L-Glutamine and Penicilin/Streptomycin 200 U/l each and supplemented with iKU-1 (2 or 5 µM). Treated cells were incubated with colcemid (0.05 µg/ml) for 3 hours to increase a number of cells in metaphase. Cells were harvested and fixed in methanol and glacial acetic acid (3:1 v/v). Chromosome spreads on slides were hybridized with telomeric peptide nucleid acid probe TelC-Cy3 (Panagene, F1002) in 70% formamide, 0.5% blocking reagent (Roche) and 20 mM TRIS-Cl pH 7.4 according manufacturer's instruction. After washing, slides were counterstained with DAPI and mounted in […]® Antifade Mounting Medium with DAPI (Vector Laboratories; H-1200-10). Fluorescence microscope with oil immersed 100× objective was used to detect telomeric signal at chromosome ends."}, "HCT116": {"test_system": "HCT116", "assay": "combination with BIBR1532, relative growth by ATPlite", "assay_type": "cell-based, human", "method": "10,000 HCT116 cells were seeded in 100 µl of McCoy's 5a medium supplemented with 10% Fetal Bovine Serum, 2 mM L-Glutamine and Penicilin/Streptomycin 200 U/l for 1 day in 96well plate and treated with 10 µM BIBR1532, 0.25 µM of iKU-1 or their combination for 4 days. Number of viable cells was measured by ATPlite kit (Perkin Elmer) and normalized to the treatment with 0.5% DMSO. The results presented in Table 2 show a synergistic effect of iKU-1 and BIBR1532 on the growth of HCT116 tumor cell line. Values in the table indicate relative growth assessed by ATPlite kit compared to the control sample treated with 0.5% DMSO after 4 days of treatment."}, "HeLa": {"test_system": "HeLa", "assay": "combination with BIBR1532, relative growth by ATPlite", "assay_type": "cell-based, human", "details": "10 µM BIBR1532, 0.25 µM iKU-1 or their combination, 4 days"}, "A2780": {"test_system": "A2780", "assay": "growth of A2780 cells by ATPlite, alone and in combination with Bleomycin", "assay_type": "cell-based, human", "method": "2,000 A2780 cells were seeded in 100 µl of RPMI 1640 medium with 300 mg/l L-Glutamine and 10% Fetal Bovine Serum for 1 day in 96well plate and treated by 0.025 µg/ml of Bleomycin, 0.5 µM of iKu-1 or their combination for 7 days. Number of viable cells was measured by ATPlite kit (Perkin Elmer) and normalized to the treatment with 0.5% DMSO.\nValues in the table indicate relative growth assessed by ATPlite kit compared to the control sample treated with 0.5% DMSO after 7 days of treatment.\nas §1"}, "HCT116 cells [2]": {"test_system": "HCT116 cells", "assay": "cell proliferation, ATPlite assay", "assay_type": "cell-based", "details": "Homo sapiens, HCT-116, 120 h, read-out: Inhibition of cell proliferation IC50", "method": "HCT116, U2OS and HeLa cells were grown in McCoy's 5a medium supplemented with 10% Fetal Bovine Serum, 2 mM L-Glutamine and Penicilin/Streptomycin 200 U/l each in the presence of Compound 1-9. After growth at 37 °C, 5% CO2 for 3 days, monolayer of cells was detached using TrypLE Express (Gibco), cells were counted using 0.4% trypan blue stain and hemocytometer. […] Number of viable cells was estimated using ATPlite kit (Perkin Elmer)."}, "HCT116 cells [3]": {"test_system": "HCT116 cells", "assay": "Telomere Shortest Length Assay", "assay_type": "cell-based, human", "details": "HCT116 treated for two days, compared with untreated control", "method": "iKU-1 induces rapid shortening of telomeres (Figure 6). HCT116 cells were treated for two days with iKU-1 and telomere size was measured by Telomere Shortest Length Assay as described in Lai, T.P., Zhang, N., Noh, J., Mender, I., Tedone, E., Huang, E., Wright, W.E., Danuser, G., and Shay, J.W. (2017). A method for measuring the distribution of the shortest telomeres in cells and tissues. Nat Commun 8, 1356, whereby individual telomeres are PCR-amplified, separated by agarose gel electrophoresis and detected by Southern hybridization with P^32-labeled telomeric DNA oligonucleotide (5'-[…]-3' (SEQ ID NO: 6))."}}, "data": [{"smiles": "O=C(Nc1nc(-c2ccccn2)cs1)c1cncc(Br)c1", "note": "[Compound 1]", "values": [{"measurement": "sensitivity of cells (growth)", "setting": "SKOV3; SKOV3, 0.5 µM", "value": "sensitive"}, {"measurement": "sensitivity of SKOV3 relative to A2780", "setting": "SKOV3; from growth curves (Figure 9)", "value": 10, "unit": "times"}, {"measurement": "incidence of telomere-free chromosome ends", "setting": "HCT116 cells [1]", "value": "increase incidence of telomere-free chromosome ends"}, {"measurement": "interaction with BIBR1532 on growth", "setting": "HCT116; HCT116, 10 µM BIBR1532 with 0.25 µM iKU-1, 4 days", "value": "synergism"}, {"measurement": "relative growth assessed by ATPlite kit compared to the control sample treated with 0.5% DMSO", "setting": "HCT116; HCT116, 10 µM BIBR1532, 0.25 µM iKU-1 or their combination, 4 days", "value": 1.17}, {"measurement": "relative growth assessed by ATPlite kit compared to the control sample treated with 0.5% DMSO", "setting": "HeLa", "value": 1.22}, {"measurement": "interaction with Bleomycin on growth", "setting": "A2780; A2780, 0.025 µg/ml Bleomycin with 0.5 µM iKu-1, 7 days", "value": "synergism"}, {"measurement": "growth inhibition", "setting": "A2780; A2780, 0.5 µM, 7 days", "value": "do not show growth inhibition"}, {"measurement": "relative growth assessed by ATPlite kit compared to the control sample treated with 0.5% DMSO", "setting": "A2780; A2780, 0.025 µg/ml Bleomycin, 0.5 µM iKU-1 or their combination, 7 days", "value": 1.11}, {"measurement": "IC50", "setting": "HCT116 cells [2]", "value": 0.5, "unit": "µM"}, {"measurement": "size of telomeres", "setting": "HCT116 cells [3]", "value": "relative decrease in the size of telomeres"}]}]}
